Reference: patent US20210045385A1, “PYRIDAZINONE-SUBSTITUTED KETOXIMES AS HERBICIDES” (FMC Corporation, priority 2018, published 2021)

How the values were obtained:
Assay type in all cases: in vivo
[1] = test system: Italian ryegrass (Lolium mutiflorum); assay: Test C preemergence, visual plant response rating
How it was run: (§1)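 Seeds sown in a loam–sand blend got a directed preemergence soil spray; postemergence plants (2–10 cm, one- to two-leaf stage) were sprayed with compound in a non-phytotoxic solvent plus surfactant. Injury was scored visually against untreated controls after about 10 d in a greenhouse on a 0–100 scale (100 = complete control).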

[2] = test system: barnyardgrass (Echinochloa crus-galli); assay: Test C preemergence, visual plant response rating
How it was run: as §1

[3] = test system: foxtail, giant (giant foxtail, Setaria faberi); assay: Test C preemergence, visual plant response rating
How it was run: as §1

kochia (Bassia scoparia) [4] = assay: Test C preemergence, visual plant response rating
How it was run: as §1

[5] = test system: pigweed (Amaranthus retroflexus); assay: Test C preemergence, visual plant response rating
How it was run: as §1

[6] = test system: ragweed (common ragweed, Ambrosia artemisiifolia); assay: Test C preemergence, visual plant response rating
How it was run: as §1

[7] = test system: Italian ryegrass (Lolium mutiflorum); assay: Test C postemergence, visual plant response rating
How it was run: as §1

[8] = test system: barnyardgrass (Echinochloa crus-galli); assay: Test C postemergence, visual plant response rating
How it was run: as §1

[9] = test system: blackgrass (Alopecurus myosuroides); assay: Test C postemergence, visual plant response rating
How it was run: as §1

corn (Zea mays) = assay: Test C postemergence, visual plant response rating
How it was run: as §1

[10] = test system: foxtail, giant (giant foxtail, Setaria faberi); assay: Test C postemergence, visual plant response rating
How it was run: as §1

[11] = test system: galium (catchweed bedstraw, Galium aparine); assay: Test C postemergence, visual plant response rating
How it was run: as §1

kochia (Bassia scoparia) [12] = assay: Test C postemergence, visual plant response rating
How it was run: as §1

[13] = test system: pigweed (Amaranthus retroflexus); assay: Test C postemergence, visual plant response rating
How it was run: as §1

[14] = test system: ragweed (common ragweed, Ambrosia artemisiifolia); assay: Test C postemergence, visual plant response rating
How it was run: as §1

[15] = test system: wheat (Triticum aestivum); assay: Test C postemergence, visual plant response rating
How it was run: as §1

[16] = test system: barnyardgrass (Echinochloa crus-galli); assay: Test D flooded paddy test, visual plant response rating; conditions: 250 g ai/ha, scale 0 to 100 (0 no effect, 100 complete control), 13 to 15 d
How it was run: (§2)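 Plants grown to the 2-leaf stage; pots flooded to 3 cm above soil and compound applied directly into paddy water, depth held throughout. Kept in greenhouse 13 to 15 d, then rated visually against untreated controls on a 0–100 scale (0 no effect, 100 complete control).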

[17] = test system: duck salad (Heteranthera limosa); assay: as above; conditions: 250 g ai/ha, scale 0 to 100 (0 no effect, 100 complete control), 13 to 15 d
How it was run: as §2

rice (Oryza sativa) = assay: as above; conditions: 250 g ai/ha, scale 0 to 100 (0 no effect, 100 complete control), 13 to 15 d
How it was run: as §2

[18] = test system: sedge umbrella (small-flower umbrella sedge, Cyperus difformis); assay: as above; conditions: 250 g ai/ha, scale 0 to 100 (0 no effect, 100 complete control), 13 to 15 d
How it was run: as §2

[19] = Test C, 31 g ai/ha, 0 is no effect, 100 is complete control
[20] = Test C, 125 g ai/ha, 0 is no effect, 100 is complete control
[21] = Test C, postemergence, 125 g ai/ha

| SMILES | Ryegrass, Italian plant response rating (0 to 100 scale) [1, 19] | Barnyardgrass plant response rating (0 to 100 scale) [2, 19] | Foxtail, Giant plant response rating (0 to 100 scale) [3, 19] | Kochia plant response rating (0 to 100 scale) (kochia (Bassia scoparia) [4]; [19]) | Pigweed plant response rating (0 to 100 scale) [5, 19] | Ragweed plant response rating (0 to 100 scale) [6, 19] | Ryegrass, Italian plant response rating (0 to 100 scale) ([7]; Postemergence, 31 g ai/ha) | Ryegrass, Italian plant response rating (0 to 100 scale) [7, 21] | Barnyardgrass plant response rating (0 to 100 scale) ([8]; Postemergence, 31 g ai/ha) | Barnyardgrass plant response rating (0 to 100 scale) [8, 21] | Blackgrass plant response rating (0 to 100 scale) ([9]; Postemergence, 31 g ai/ha) | Blackgrass plant response rating (0 to 100 scale) [9, 21] | Corn plant response rating (0 to 100 scale) (corn (Zea mays); Postemergence, 31 g ai/ha) | Corn plant response rating (0 to 100 scale) (corn (Zea mays); [21]) | Foxtail, Giant plant response rating (0 to 100 scale) ([10]; Postemergence, 31 g ai/ha) | Foxtail, Giant plant response rating (0 to 100 scale) [10, 21] | Galium plant response rating (0 to 100 scale) ([11]; Postemergence, 31 g ai/ha) | Galium plant response rating (0 to 100 scale) [11, 21] | Kochia plant response rating (0 to 100 scale) (kochia (Bassia scoparia) [12]; Postemergence, 31 g ai/ha) | Kochia plant response rating (0 to 100 scale) (kochia (Bassia scoparia) [12]; [21]) | also measured |
| --- | --- | --- | --- | --- | --- | --- | --- | --- | --- | --- | --- | --- | --- | --- | --- | --- | --- | --- | --- | --- | --- |
| C#CCO/N=C(\c1cccc(/C=C/Cl)c1)c1c(O)c(C)nn(C)c1=O [Compound 254] | 20 | 0 | 0 | 0 | 0 | 40 | 20 | 70 | 30 | 50 | 10 | 70 | 0 | 10 | 20 | 60 | 0 | 40 | 50 | 70 | Ryegrass, Italian plant response rating (0 to 100 scale) [1, 20]: 60; Barnyardgrass plant response rating (0 to 100 scale) [2, 20]: 0; Foxtail, Giant plant response rating (0 to 100 scale) [3, 20]: 40; Kochia plant response rating (0 to 100 scale) (kochia (Bassia scoparia) [4]; [20]): 0; Pigweed plant response rating (0 to 100 scale) [5, 20]: 10; Ragweed plant response rating (0 to 100 scale) [6, 20]: 90; Pigweed plant response rating (0 to 100 scale) ([13]; Postemergence, 31 g ai/ha): 20; Pigweed plant response rating (0 to 100 scale) [13, 21]: 70; Ragweed plant response rating (0 to 100 scale) ([14]; Postemergence, 31 g ai/ha): 30; Ragweed plant response rating (0 to 100 scale) [14, 21]: 50; Wheat plant response rating (0 to 100 scale) ([15]; Postemergence, 31 g ai/ha): 30; Wheat plant response rating (0 to 100 scale) [15, 21]: 60; Plant response rating, Barnyardgrass (Flood) [16]: 0; Plant response rating, Ducksalad (Flood) [17]: 0; Plant response rating, Rice (Flood) (rice (Oryza sativa)): 0; Plant response rating, Sedge, Umbrella (Flood) [18]: 0 |
| C#CCO/N=C(\c1cc(Cl)cc(Br)c1)c1c(O)c(C)nn(C)c1=O [Compound 292] | 80 | 60 | 70 | 30 | 50 | 90 | 100 | 100 | 30 | 70 | 0 | 80 | 0 | 40 | 60 | 100 | 100 | 100 | 60 | 100 | Ryegrass, Italian plant response rating (0 to 100 scale) [1, 20]: 100; Barnyardgrass plant response rating (0 to 100 scale) [2, 20]: 100; Foxtail, Giant plant response rating (0 to 100 scale) [3, 20]: 100; Kochia plant response rating (0 to 100 scale) (kochia (Bassia scoparia) [4]; [20]): 100; Pigweed plant response rating (0 to 100 scale) [5, 20]: 100; Ragweed plant response rating (0 to 100 scale) [6, 20]: 100; Pigweed plant response rating (0 to 100 scale) ([13]; Postemergence, 31 g ai/ha): 60; Pigweed plant response rating (0 to 100 scale) [13, 21]: 90; Ragweed plant response rating (0 to 100 scale) ([14]; Postemergence, 31 g ai/ha): 100; Ragweed plant response rating (0 to 100 scale) [14, 21]: 100; Wheat plant response rating (0 to 100 scale) ([15]; Postemergence, 31 g ai/ha): 60; Wheat plant response rating (0 to 100 scale) [15, 21]: 100; Plant response rating, Barnyardgrass (Flood) [16]: 0; Plant response rating, Ducksalad (Flood) [17]: 45; Plant response rating, Rice (Flood) (rice (Oryza sativa)): 0; Plant response rating, Sedge, Umbrella (Flood) [18]: 55 |
| C#CCO/N=C(\c1c(O)c(C)nn(C)c1=O)c1cc(Cl)cc2ccccc12 [Compound 191] | 30 | 30 | 70 | 10 | 80 | 50 | 0 | 80 | 80 | 90 | 80 | 70 | 10 | 60 | 70 | 80 | 70 | 100 | 50 | 80 | Ryegrass, Italian plant response rating (0 to 100 scale) ([1]; 125 g ai/ha): 80; Barnyardgrass plant response rating (0 to 100 scale) ([2]; 125 g ai/ha): 90; Foxtail, Giant plant response rating (0 to 100 scale) ([3]; 125 g ai/ha): 90; Kochia plant response rating (0 to 100 scale) (kochia (Bassia scoparia) [4]; 125 g ai/ha): 60; Pigweed plant response rating (0 to 100 scale) ([5]; 125 g ai/ha): 100; Ragweed plant response rating (0 to 100 scale) ([6]; 125 g ai/ha): 80; Pigweed plant response rating (0 to 100 scale) ([13]; Postemergence, 31 g ai/ha): 90; Pigweed plant response rating (0 to 100 scale) [13, 21]: 100; Ragweed plant response rating (0 to 100 scale) ([14]; Postemergence, 31 g ai/ha): 70; Ragweed plant response rating (0 to 100 scale) [14, 21]: 80; Wheat plant response rating (0 to 100 scale) ([15]; Postemergence, 31 g ai/ha): 0; Wheat plant response rating (0 to 100 scale) [15, 21]: 70; Plant response rating, Barnyardgrass (Flood) [16]: 70; Plant response rating, Ducksalad (Flood) [17]: 75; Plant response rating, Rice (Flood) (rice (Oryza sativa)): 60; Plant response rating, Sedge, Umbrella (Flood) [18]: 80 |
